US20250376691A1, “FLOTATION OF CULTURED EMBRYO EXPLANTS FOR IMPROVED PLANT REGENERATION EFFICIENCY” (Monsanto Technology LLC, priority 2022, published 2025)

Test system: corn seed excised explants
Experiment: Agrobacterium-mediated transformation and shoot/plant regeneration of corn seed excised explants (shoot frequency, normal shoot frequency, normal plant frequency)
Type: cell-based
Experimental: The shoot frequency was calculated as the number of inoculated explants producing shoots divided by the total number of inoculated explants.
The shoot frequency was calculated as the number of inoculated explants producing shoots divided by the total number of inoculated explants. […] The normal shoot frequency was calculated as the number of normal shoots divided by the total number of inoculated explants.

## O=C(O)COc1ccc(Cl)cc1Cl [2,4-D, 2,4-dichlorophenoxyacetic acid]
4 and 5 day co-culture combined
  average normal plant frequency when 2,4-D was present in co-culture medium: 0.73%
co-culture 4 days
  average normal plant frequency (%), 2,4-D Present in Co-Culture: 0.85%
co-culture 5 days
  average normal plant frequency (%), 2,4-D Present in Co-Culture: 0.5%
co-culture medium, 17 experiments
  Fold Increase in normal plant frequency without 2,4-D versus with 2,4-D, overall/average: 1.8
